Data: publication PMC3698108, “Structural and bioactive studies of terpenes and cyclopeptides from the Genus Rubia” (Chemistry Central Journal, 2013)

Assays:
Protein kinase C (PKC) = settings: cited from earlier work
human colon-cancer cells = tested on: human colon-cancer cells; parameters: method as in PMID 18790561, PMID 18298868; settings: intrinsic mitochondrial pathway; cited from earlier work
pancreatic tumor = tested on: pancreatic tumor; parameters: method as in PMID 20367887; settings: cited from earlier work
[1] = parameters: method as in PMID 17978478; settings: KK-A^y mice; cited from earlier work
[2] = tested on: human immunodeficiency virus (HIV-1) protease; parameters: method as in PMID 8759159; settings: cited from earlier work
Candida albicans = tested on: Candida albicans; parameters: method as in PMID 21973054; settings: turbidimetric method; cited from earlier work
Staphylococcus aureus = tested on: Staphylococcus aureus; parameters: method as in PMID 21973054; settings: turbidimetric method; cited from earlier work
A549, Hela and SMMC-7721 = tested on: A549, Hela and SMMC-7721; parameters: method as in PMID 21973054; settings: data not very satisfactory; cited from earlier work
[3] = tested on: RAW 264.7 murine macrophages; settings: cited from earlier work
HUVEC and HMEC-1 = tested on: HUVEC and HMEC-1; parameters: method as in PMID 21518338; settings: cited from earlier work
iNOS = tested on: iNOS; parameters: method as in PMID 12808242; settings: cited from earlier work
HL-60 and HCT-116 = tested on: HL-60 and HCT-116; parameters: method as in PMID 22298232; settings: cited from earlier work
corneal angiogenesis = tested on: corneal angiogenesis; parameters: method as in PMID 16827808; settings: cited from earlier work
BAEC = tested on: BAEC; parameters: method as in PMID 16827808; settings: cited from earlier work
[4] = tested on: Lewis lung carcinoma cells; parameters: method as in PMID 16827808; settings: daily intraperitoneal injection, 1.5 or 3 mg/kg/day, cited from earlier work

For `CC1(C)CC[C@]2(C(=O)O)CC[C@]3(C)C(=CC[C@@H]4[C@@]5(C)C[C@@H](O)[C@H](O)C(C)(C)[C@@H]5CC[C@]43C)[C@@H]2C1` [Compound 9, Maslinic acid], the PKC inhibition (Protein kinase C (PKC)) is given as “acted as a PKC inhibitor”, the caspase-dependent apoptosis (human colon-cancer cells) is given as “induce caspase-dependent apoptosis” and the “effect on anti-tumor activities of TNF-α” value (pancreatic tumor) is given as “potentiate anti-tumor activities of TNF-α”. The “pancreatic tumor growth and invasion” value (pancreatic tumor) was “inhibit pancreatic tumor growth and invasion”, the “glucose-lowering and hypoinsulinemic effects” value [1] was “significant glucose-lowering and hypoinsulinemic effects” and the “inhibition on HIV-1 protease” value [2] was “possess inhibition”.

For `CC(=O)O[C@@H]1C[C@@H](C(C)C)[C@]2(CO)CC[C@@]3(C)[C@H]4C(=CC[C@]3(C)[C@@H]12)[C@@]1(C)CC[C@H](O)C(C)(C)[C@@H]1C[C@@H]4O` [Compound 22, Rubiarbonol G], the melting point is given as 170 to 173 °C, the “antifungal activity against Candida albicans” value (Candida albicans) is given as “exhibited inhibition” and the “antibacterial activity against Staphylococcus aureus” value (Staphylococcus aureus) is given as “exhibited inhibition”. The “inhibition on A549, Hela and SMMC-7721” value (A549, Hela and SMMC-7721) was “had inhibition”.

For `COc1ccc(C[C@H]2C(=O)N[C@@H](C)C(=O)N(C)[C@H]3Cc4ccc(cc4)Oc4cc(ccc4O)C[C@@H](C(=O)N[C@H](C)C(=O)N[C@@H](C)C(=O)N2C)N(C)C3=O)cc1` [Compound 71, RA-V], the “activity against NO production in LPS” value [3] is listed as “exhibited activity”, the “antiangiogenic activity in HUVEC and HMEC-1” value (HUVEC and HMEC-1) is listed as “possessed the activity” and the “effects on iNOS induction” value (iNOS) is listed as “potent effects”. For the same compound, the “cytotoxic activities against HL-60 and HCT-116” value (HL-60 and HCT-116) was “potent cytotoxicities”.

In the case of `COc1ccc(C[C@H]2C(=O)N[C@@H](C)C(=O)N(C)[C@H]3Cc4ccc(cc4)Oc4cc(ccc4OC)C[C@@H](C(=O)N[C@H](C)C(=O)N[C@@H](C)C(=O)N2C)N(C)C3=O)cc1` [Compound 74, RA-VII], the mouse corneal angiogenesis (corneal angiogenesis) is listed as “effects on mouse corneal angiogenesis”, the “antiangiogenic activity on proliferation, migration, stress fiber formation of BAEC” value (BAEC) is listed as “antiangiogenic activity” and the “cytotoxic activities against HL-60 and HCT-116” value (HL-60 and HCT-116) is listed as “potent cytotoxicities”. For the same compound, the “growth of Lewis lung carcinoma cells inoculated into mice” value [4] was “significantly and dose dependently inhibited” and the “toxic effects on animals” value ([4]; mice) was “no toxic effects”.
